Drawing on patent US12103920B2, “Cereblon binding compounds, compositions thereof, and methods of treatment therewith” (Celgene Corporation, priority 2020, dated 2024), this text covers DC50 and Y for eleven molecules.

The assay addresses T1, AR protein in VCaP cells (Homo sapiens, UniProt P10275).
T1 construct: endogenous in cells; host or cells: VCaP cells
T1 sequence (P10275 1-920): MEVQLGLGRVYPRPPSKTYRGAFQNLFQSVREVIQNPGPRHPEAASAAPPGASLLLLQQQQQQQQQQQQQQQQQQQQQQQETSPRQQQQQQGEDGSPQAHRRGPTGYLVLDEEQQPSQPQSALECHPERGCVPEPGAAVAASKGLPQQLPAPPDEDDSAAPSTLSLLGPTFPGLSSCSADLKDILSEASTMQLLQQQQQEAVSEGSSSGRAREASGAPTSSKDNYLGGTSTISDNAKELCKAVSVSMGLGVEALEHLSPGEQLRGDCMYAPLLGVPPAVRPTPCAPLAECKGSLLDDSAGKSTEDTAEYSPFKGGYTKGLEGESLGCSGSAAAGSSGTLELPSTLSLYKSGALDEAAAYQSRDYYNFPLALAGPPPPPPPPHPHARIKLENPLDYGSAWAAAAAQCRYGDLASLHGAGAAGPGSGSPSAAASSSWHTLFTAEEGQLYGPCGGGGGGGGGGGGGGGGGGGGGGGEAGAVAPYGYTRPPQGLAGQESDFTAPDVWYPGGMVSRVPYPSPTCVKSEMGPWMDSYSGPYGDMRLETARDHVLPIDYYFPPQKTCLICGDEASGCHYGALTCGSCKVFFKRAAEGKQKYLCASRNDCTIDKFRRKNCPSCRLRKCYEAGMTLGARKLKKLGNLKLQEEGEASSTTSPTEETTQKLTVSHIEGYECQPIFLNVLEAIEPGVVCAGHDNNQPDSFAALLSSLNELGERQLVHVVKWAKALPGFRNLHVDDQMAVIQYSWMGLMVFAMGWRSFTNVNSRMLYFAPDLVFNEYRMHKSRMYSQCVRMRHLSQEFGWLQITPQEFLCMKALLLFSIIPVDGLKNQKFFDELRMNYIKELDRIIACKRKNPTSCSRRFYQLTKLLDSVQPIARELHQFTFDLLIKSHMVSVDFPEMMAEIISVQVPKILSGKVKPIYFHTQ
Briefly: VCAP AR Degradation Assay. The format is cell-based. The settings on record: 24 h, AR ELISA; for DC50: concentration at 50% of DMSO control (50% AR degradation); for Y: lowest measured AR level normalized to DMSO control. The method, then:
VCAP AR Degradation Assay. Test compounds were pre-dispensed into a Corning CellBind 96-well clear bottom plate (Cat #3300) using an acoustic dispenser to make a 10-point concentration series at 1:3 dilution for each compound. The final top concentration of each compound was 5 μM. DMSO at a final concentration of 0.1% was used as a control. VCaP cells cultured in DMEM with 8% fetal bovine serum (FBS) were seeded at 50K cells per well in a 200 μL volume into the compound plate and incubated at 37° C. in a CO2 incubator for 24 h. The medium was carefully removed from the cells and the plate was placed on ice. One hundred μL of ice-cold 1× cell lysis buffer from Cell Signaling Technologies (Cat #9803) was added to each well of the cells and the plate was incubated at 4° C. on a shaker for 1 h. Fifteen μL of cell lysate was used for AR ELISA detection using a PathScan Total Sandwich AR ELISA kit (Cell Signaling Technology, Cat #12580). AR levels in compound-treated wells were normalized to that of DMSO control and expressed as percent of control (PoC) (y). A Four Parameter Logistic Model (Sigmoidal Dose-Response Model) was used to determine the compound's DC50, and EC50, using the following equation: y=(A+((B−A)/(1+((C/x)^D)))) • A=YMin (lowest AR level normalized to DMSO control in response to compound treatment, as determined by curve fit) • B=YMax (maximum AR level as determined by curve fit) • C=EC50 • D=Hill Slope • x=compound concentration • EC50=the concentration of compound when y=(YMax−YMin)/2 • DC50=the concentration of the compound when y=50% of DMSO control (50% AR degradation) • y=AR protein level normalized to DMSO control
The lowest measured AR level normalized to DMSO control in response to compound treatment, termed Y value, was used to characterize the compound-mediated AR degradation efficiency.

Where a name gives a salt, the structure may show the parent alone. A value given as a limit tells only on which side of the number the result lay.

Consider `CC1(C)C(=O)N(c2ccc(C#N)c(C(F)(F)F)c2)C(=S)N1[C@H]1CC[C@H](OCCN2CCN(CC(=O)Nc3cccc(NC4CCC(=O)NC4=O)c3)[C@@H](C(F)(F)F)C2)CC1` (stereo partly drawn) [Cmpd 19, 2-((R)-4-(2-((trans-4-(3-(4-Cyano-3-(trifluoromethyl)phenyl)-5,5-dimethyl-4-oxo-2-thioxoimidazolidin-1-yl)cyclohexyl)oxy)ethyl)-2-(trifluoromethyl)piperazin-1-yl)-N-(3-((2,6-dioxopiperidin-3-yl)amino)phenyl)acetamide hydrochloride], for which the DC50 lay in the range of 5 to 10 nM and the Y result is “* (0<Y≤15%)”.

Take `CC1(C)C(=O)N(c2cnc(C#N)c(C(F)(F)F)c2)C(=S)N1[C@H]1CC[C@H](OCCCN2CCN(CC(=O)Nc3cccc(NC4CCC(=O)NC4=O)c3)[C@@H](C(F)(F)F)C2)CC1` (stereo partly drawn) [Cmpd 28, 2-((R)-4-(3-(((trans)-4-(3-(6-cyano-5-(trifluoromethyl)pyridin-3-yl)-5,5-dimethyl-4-oxo-2-thioxoimidazolidin-1-yl)cyclohexyl)oxy)propyl)-2-(trifluoromethyl)piperazin-1-yl)-N-(3-((2,6-dioxopiperidin-3-yl)amino)phenyl)acetamide]: the DC50 is ≤ 5 nM and the Y result was “* (0<Y≤15%)”.

`C[C@@H]1CN(CCC[C@H]2CC[C@H](N3C(=S)N(c4ccc(C#N)c(C(F)(F)F)c4)C(=O)C3(C)C)CC2)C[C@H](C)N1CC(=O)Nc1cccc(NC2CCC(=O)NC2=O)c1` (stereo partly drawn) [Cmpd 2, 2-((2R,6S)-4-(3-(trans-4-(3-(4-Cyano-3-(trifluoromethyl)phenyl)-5,5-dimethyl-4-oxo-2-thioxoimidazolidin-1-yl)cyclohexyl)propyl)-2,6-dimethylpiperazin-1-yl)-N-(3-((2,6-dioxopiperidin-3-yl)amino)phenyl)acetamide]: the DC50 was in the range of 10 to 100 nM and the Y result is given as “* (0<Y≤15%)”.

For `C[C@@H]1CN(CCO[C@H]2CC[C@H](N3C(=S)N(c4ccc(C#N)c(C(F)(F)F)c4)C(=O)C3(C)C)CC2)C[C@H](C)N1CC(=O)Nc1cccc(N[C@@H]2CCC(=O)NC2=O)c1` [Cmpd 3, 2-((2R,6S)-4-(2-((trans-4-(3-(4-Cyano-3-(trifluoromethyl)phenyl)-5,5-dimethyl-4-oxo-2-thioxoimidazolidin-1-yl)cyclohexyl)oxy)ethyl)-2,6-dimethylpiperazin-1-yl)-N-(3-(((R)-2,6-dioxopiperidin-3-yl)amino)phenyl)acetamide hydrochloride], the DC50 was 5 to 10 nM and the Y entry was “*** (25%<Y<50%)”.

Turning to `C[C@@H]1CN(CCCO[C@H]2CC[C@H](N3C(=S)N(c4cnc(C#N)c(C(F)(F)F)c4)C(=O)C3(C)C)CC2)C[C@H](C)N1CC(=O)Nc1cccc(NC2CCC(=O)NC2=O)c1` (stereo partly drawn) [Cmpd 10, 2-((2R,6S)-4-(3-((trans-4-(3-(6-Cyano-5-(trifluoromethyl)pyridin-3-yl)-5,5-dimethyl-4-oxo-2-thioxoimidazolidin-1-yl)cyclohexyl)oxy)propyl)-2,6-dimethylpiperazin-1-yl)-N-(3-((2,6-dioxopiperidin-3-yl)amino)phenyl)acetamide hydrochloride], the DC50 is ≤ 5 nM and the Y result was “** (15%<Y≤20%)”.

As for `C[C@@H]1C[C@H](CCO[C@H]2CC[C@H](N3C(=S)N(c4cnc(C#N)c(C(F)(F)F)c4)C(=O)C3(C)C)CC2)C[C@H](C)N1CC(=O)Nc1cccc(NC2CCC(=O)NC2=O)c1` (stereo partly drawn) [Cmpd 21, 2-((2S,4r,6R)-4-(2-((trans-4-(3-(6-Cyano-5-(trifluoromethyl)pyridin-3-yl)-5,5-dimethyl-4-oxo-2-thioxoimidazolidin-1-yl)cyclohexyl)oxy)ethyl)-2,6-dimethylpiperidin-1-yl)-N-(3-((2,6-dioxopiperidin-3-yl)amino)phenyl)acetamide], the DC50 was ≤ 5 nM and the Y result is listed as “* (0<Y≤15%)”.

Turning to `CC1(C)C(=O)N(c2cnc(C#N)c(C(F)(F)F)c2)C(=S)N1[C@H]1CC[C@H](OCCN2CCN(CC(=O)Nc3cccc(NC4CCC(=O)NC4=O)c3)[C@@H](C(F)(F)F)C2)CC1` (stereo partly drawn) [Cmpd 20, 2-((R)-4-(2-((trans-4-(3-(6-Cyano-5-(trifluoromethyl)pyridin-3-yl)-5,5-dimethyl-4-oxo-2-thioxoimidazolidin-1-yl)cyclohexyl)oxy)ethyl)-2-(trifluoromethyl)piperazin-1-yl)-N-(3-((2,6-dioxopiperidin-3-yl)amino)phenyl)acetamide hydrochloride], the DC50 was ≤ 5 nM and the Y entry is on record as “* (0<Y≤15%)”.

For `CC1(C)C(=O)N(c2cnc(C#N)c(C(F)(F)F)c2)C(=S)N1[C@H]1CC[C@H](OCCN2CCN(CC(=O)Nc3cc(Cl)cc(NC4CCC(=O)NC4=O)c3)[C@@H](C(F)(F)F)C2)CC1` (stereo partly drawn) [Cmpd 26, N-(3-Chloro-5-((2,6-dioxopiperidin-3-yl)amino)phenyl)-2-((R)-4-(2-(((trans)-4-(3-(6-cyano-5-(trifluoromethyl)pyridin-3-yl)-5,5-dimethyl-4-oxo-2-thioxoimidazolidin-1-yl)cyclohexyl)oxy)ethyl)-2-(trifluoromethyl)piperazin-1-yl)acetamide], the DC50 was 5 to 10 nM and the Y result was “* (0<Y≤15%)”.

Turning to `CC1(C)C(=O)N(c2ccc(C#N)c(C(F)(F)F)c2)C(=S)N1[C@H]1CC[C@H](OCCCN2CCN(CC(=O)Nc3cccc(NC4CCC(=O)NC4=O)c3)[C@@H](C(F)(F)F)C2)CC1` (stereo partly drawn) [Cmpd 30, 2-((R)-4-(3-(((trans)-4-(3-(4-Cyano-3-(trifluoromethyl)phenyl)-5,5-dimethyl-4-oxo-2-thioxoimidazolidin-1-yl)cyclohexyl)oxy)propyl)-2-(trifluoromethyl)piperazin-1-yl)-N-(3-((2,6-dioxopiperidin-3-yl)amino)phenyl)acetamide], the DC50 fell in the range of 5 to 10 nM and the Y entry is given as “* (0<Y≤15%)”.

On to `CC1(C)C(=O)N(c2cnc(C#N)c(C(F)(F)F)c2)C(=S)N1[C@H]1CC[C@H](OCCN2CCN(CC(=O)Nc3cc(C#N)cc(NC4CCC(=O)NC4=O)c3)[C@@H](C(F)(F)F)C2)CC1` (stereo partly drawn) [Cmpd 31, N-(3-Cyano-5-((2,6-dioxopiperidin-3-yl)amino)phenyl)-2-((R)-4-(2-(((trans)-4-(3-(6-cyano-5-(trifluoromethyl)pyridin-3-yl)-5,5-dimethyl-4-oxo-2-thioxoimidazolidin-1-yl)cyclohexyl)oxy)ethyl)-2-(trifluoromethyl)piperazin-1-yl)acetamide], for which the DC50 is ≤ 5 nM and the Y entry is recorded as “* (0<Y≤15%)”.

Consider `C[C@@H]1CN(CCCO[C@H]2CC[C@H](N3C(=S)N(c4ccc(C#N)c(Cl)c4)C(=O)C3(C)C)CC2)C[C@H](C)N1CC(=O)Nc1cccc(NC2CCC(=O)NC2=O)c1` (stereo partly drawn) [Cmpd 9, 2-((2R,6S)-4-(3-((trans-4-(3-(3-Chloro-4-cyanophenyl)-5,5-dimethyl-4-oxo-2-thioxoimidazolidin-1-yl)cyclohexyl)oxy)propyl)-2,6-dimethylpiperazin-1-yl)-N-(3-((2,6-dioxopiperidin-3-yl)amino)phenyl)acetamide hydrochloride], for which the DC50 was ≤ 5 nM and the Y entry is “*** (25%<Y<50%)”.
